In data set [1] the target is T1, Dihydroorotate dehydrogenase (quinone), mitochondrial (Homo sapiens, UniProt Q02127).
For data set [2], the target named is Dihydroorotate dehydrogenase (quinone), mitochondrial (Mus musculus, UniProt O35435).
Data set [3] deals with Dihydroorotate dehydrogenase (quinone), mitochondrial (Rattus norvegicus, UniProt Q63707).
The subject of data set [4] is Plasmodium falciparum. Description: microbe, parasite or virus in culture. The settings on record: 3D7, 72 h.
A short description of data set [5]: Inhibition of N-terminal His6-tagged Plasmodium falciparum DHODH expressed in Escherichia coli BL21(DE3) cells using L-DHO as substrate by DCIP dye based assay.
Data set [6] in a line: Intrinsic clearance in human liver microsomes assessed as per mg protein. Type of data set: ADME, Microsome.
Data set [7] in a line: Intrinsic clearance in mouse liver microsomes assessed as per mg protein. Type of data set: ADME, Microsome.
The target of data set [8] is T2, Albumin (Homo sapiens, UniProt P02768). Description: Binding affinity to albumin (unknown origin) by chromatographic method. The settings on record: for fraction unbound: albumin, read-out: PB (converted). Type of data set: ADME.
T2 sequence (P02768 whole entry): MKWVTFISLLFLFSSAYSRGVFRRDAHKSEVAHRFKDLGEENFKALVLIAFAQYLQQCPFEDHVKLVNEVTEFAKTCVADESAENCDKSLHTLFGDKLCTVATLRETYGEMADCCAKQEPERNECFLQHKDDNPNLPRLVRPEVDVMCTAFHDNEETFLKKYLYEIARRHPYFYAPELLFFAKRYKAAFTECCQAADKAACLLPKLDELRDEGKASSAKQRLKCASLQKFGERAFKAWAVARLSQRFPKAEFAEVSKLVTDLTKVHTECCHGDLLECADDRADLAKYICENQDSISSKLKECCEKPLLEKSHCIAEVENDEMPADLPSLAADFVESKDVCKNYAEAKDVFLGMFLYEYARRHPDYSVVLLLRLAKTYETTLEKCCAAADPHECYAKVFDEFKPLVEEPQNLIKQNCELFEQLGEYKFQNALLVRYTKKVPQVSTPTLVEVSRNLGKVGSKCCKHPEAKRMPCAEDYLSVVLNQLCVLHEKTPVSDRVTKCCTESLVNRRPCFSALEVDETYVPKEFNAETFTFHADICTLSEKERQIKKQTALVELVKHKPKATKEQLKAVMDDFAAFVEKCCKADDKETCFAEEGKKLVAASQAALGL
Data set [9] is described as follows: physchem. The note with it: octanol/water, pH 7.4.
Data set [10] in a line: Inhibition of C-terminal His6-tagged Plasmodium falciparum DHODH expressed in Escherichia coli BL21(DE3) cells using L-DHO as substrate after 20 mins by 2,6-dichloroindophenol reduction based assay.
Data set [11] has as its target T1, Dihydroorotate dehydrogenase (quinone), mitochondrial. The data set is described as follows: Inhibition of C-terminal His6-tagged human DHODH (30 to 396 residues) expressed in Escherichia coli BL21(DE3) cells using L-DHO as substrate after 20 mins by 2,6-dichloroindophenol reduction based assay.
Data set [12] can be described thus: Inhibition of yeast DHODH transformed in Plasmodium falciparum D10 in presence of 10 uM proguanil. Further details: species or system Saccharomyces cerevisiae.
In data set [13] the test system is Plasmodium falciparum. Type of data set: functional, organism-based. The note with it: R10C1B, 72 h.
Data set [14] relates to Plasmodium falciparum. The data set is described as follows: Antimalarial activity against Plasmodium falciparum R1BC1A harboring DHODH L531F mutant measured after 72 hrs by SYBR Green dye based fluorescence assay. Type of data set: functional, organism-based.
Data set [15] deals with Plasmodium falciparum. The data set is described as follows: Antimalarial activity against Plasmodium falciparum R1AC1B harboring DHODH C276F mutant measured after 72 hrs by SYBR Green dye based fluorescence assay. Type of data set: functional, organism-based.
In data set [16] the test system is Plasmodium falciparum. Type of data set: functional, organism-based. The note with it: R2B, 72 h.
For a further data set, the system named is HepG2. The data set is described as follows: Cytotoxicity against human HepG2 cells assessed as reduction in cell viability. It is filed as cell-based.
A further data set concerns L1210. Description: Cytotoxicity against mouse L1210 cells assessed as reduction in cell viability. It is filed as cell-based.
The target of data set [17] is T3, Voltage-gated inwardly rectifying potassium channel KCNH2 (Homo sapiens, UniProt Q12809). Description: Inhibition of human ERG by patch clamp assay.
T3 sequence (Q12809 whole entry): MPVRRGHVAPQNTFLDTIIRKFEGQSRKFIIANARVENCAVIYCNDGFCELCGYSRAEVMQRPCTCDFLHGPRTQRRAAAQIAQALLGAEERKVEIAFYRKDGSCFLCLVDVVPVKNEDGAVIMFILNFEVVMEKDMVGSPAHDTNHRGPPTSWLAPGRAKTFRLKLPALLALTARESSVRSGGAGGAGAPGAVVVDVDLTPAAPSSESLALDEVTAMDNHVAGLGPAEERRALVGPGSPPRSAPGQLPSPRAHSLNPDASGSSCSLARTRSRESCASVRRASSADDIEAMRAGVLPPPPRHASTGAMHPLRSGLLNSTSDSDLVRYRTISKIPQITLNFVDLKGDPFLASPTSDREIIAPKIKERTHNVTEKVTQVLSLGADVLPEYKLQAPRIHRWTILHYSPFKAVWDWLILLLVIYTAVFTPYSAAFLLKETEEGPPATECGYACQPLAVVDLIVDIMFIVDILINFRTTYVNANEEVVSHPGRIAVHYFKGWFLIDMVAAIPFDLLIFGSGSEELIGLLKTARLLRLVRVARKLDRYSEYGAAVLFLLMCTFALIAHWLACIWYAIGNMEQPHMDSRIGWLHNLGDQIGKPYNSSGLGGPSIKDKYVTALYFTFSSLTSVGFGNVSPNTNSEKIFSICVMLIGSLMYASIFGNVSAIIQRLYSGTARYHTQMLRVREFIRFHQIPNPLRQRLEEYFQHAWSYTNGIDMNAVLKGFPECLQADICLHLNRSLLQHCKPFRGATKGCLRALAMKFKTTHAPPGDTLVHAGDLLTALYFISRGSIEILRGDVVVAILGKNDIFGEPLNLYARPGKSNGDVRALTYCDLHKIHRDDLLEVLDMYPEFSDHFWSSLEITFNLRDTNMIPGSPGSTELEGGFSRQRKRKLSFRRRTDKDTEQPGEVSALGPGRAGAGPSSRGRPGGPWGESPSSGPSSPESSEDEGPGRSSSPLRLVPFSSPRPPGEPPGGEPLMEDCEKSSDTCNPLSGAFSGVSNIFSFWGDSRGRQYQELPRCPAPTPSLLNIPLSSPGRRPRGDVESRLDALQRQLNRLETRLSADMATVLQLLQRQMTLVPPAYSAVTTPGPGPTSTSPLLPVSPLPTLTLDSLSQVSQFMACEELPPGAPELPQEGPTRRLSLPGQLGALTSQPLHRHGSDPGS
The target in data set [18] is T3, Voltage-gated inwardly rectifying potassium channel KCNH2. The data set is described as follows: Inhibition of human ERG by IonWorks patch clamp electrophysiology assay.
Data set [19] is described as follows: Protein binding in rat plasma by LC-MS analysis based ultracentrifugation assay. The note with it: read-out: PPB (converted). It is filed as ADME, cell-free.
For data set [20], the target named is T2, Albumin. The data set is described as follows: Binding affinity to albumin (unknown origin) in ALBUMAX medium. Type of data set: ADME. The note with it: read-out: PB (converted).
A short description of data set [21]: Protein binding in human liver microsomes by LC-MS analysis based ultracentrifugation assay. Type of data set: ADME, Microsome. The settings on record: read-out: PB (converted).
Data set [22] can be described thus: Protein binding in DMEM medium containing 10% fetal calf serum by LC-MS analysis based ultracentrifugation assay. Type of data set: ADME, cell-free, Bos taurus. The note with it: cattle, serum.
Data set [23] can be described thus: Apparent half life in Swiss mouse at 10 mg/kg, po by LC-MS analysis. Type of data set: ADME, organism-based. The note with it: in vivo, read-out: t1/2(app) (converted).
A short description of data set [24]: Cmax in Swiss mouse at 10 mg/kg, po by LC-MS analysis. Type of data set: ADME, organism-based. The note with it: in vivo. Details: dose 10 mg/kg, route oral.
A short description of data set [25]: AUC (0 to infinity) in Swiss mouse at 10 mg/kg, po by LC-MS analysis. It is filed as ADME, organism-based. Further details: dose 10 mg/kg, route oral, time infinity. The settings on record: in vivo.
Data set [26] can be described thus: Oral bioavailability in Swiss mouse at 10 mg/kg by LC-MS analysis. It is filed as ADME, organism-based. The settings on record: in vivo.
The nature of data set [27]: Clearance in Sprague-Dawley rat plasma at […], iv by LC-MS analysis. The note with it: in vivo. Type of data set: ADME, organism-based.
A short description of data set [28]: Cmax in Sprague-Dawley rat at 18.8 mg/kg, po by LC-MS analysis. It is filed as ADME, organism-based. Further details: dose 18.8 mg/kg, route oral. The note with it: in vivo.
For data set [29], the system named is Plasmodium falciparum. The data set is described as follows: Antimalarial activity against Plasmodium falciparum 3D70087/N9 infected in po dosed NOD-SCID IL2Rgamma null mouse administered BID for 4 days by flow cytometric analysis. It is filed as functional. The note with it: 3D70087/N9, po, 96 h.
Data set [30] can be described thus: fAUC in Plasmodium falciparum 3D70087/N9 infected po dosed NOD-SCID IL2Rgamma null mouse blood administered once daily for 4 days. Type of data set: ADME, organism-based. The settings on record: in vivo, 96 h.
For data set [31] the following is noted: simulated gi fluid, pH 5.8.
The test system of data set [32] is Plasmodium falciparum.
A short description of data set [33]: in vivo. The note with it: Swiss, mouse, po, 10 mg/kg.
The nature of data set [34]: in vivo. The note with it: Sprague-Dawley, rat, po.
Data set [35] can be described thus: physchem. The note with it: fasted state simulated gastric fluid, pH 1.6.
The nature of data set [36]: physchem. The settings on record: fasted state simulated intestinal fluid, pH 6.5.
The nature of data set [37]: physchem. The note with it: PBS, pH 7.4.
For data set [38], the system named is Plasmodium falciparum. Description: animal or person. The settings on record: for EC50: 3D70087/N9, 96 h.
Data set [39] has as its system Plasmodium falciparum. The data set is described as follows: microbe, parasite or virus in culture. The settings on record: 1D3, 72 h.
Data set [40] can be described thus: Intrinsic clearance in liver microsomes assessed as per mg protein. The note with it: read-out: CLH.
For data set [41], the system named is Plasmodium falciparum. The data set is described as follows: Antimalarial activity against Plasmodium falciparum 3D70087/N9 infected in NOD-SCID IL2Rgamma null mouse assessed as blood AUC level require to show 90% reduction in parasitemia administered administered once daily for 4 days. It is filed as functional, organism-based.

≈ marks a conversion by molar mass, not a printed value.

Chain of Dihydroorotate dehydrogenase (quinone), mitochondrial (Rattus norvegicus, UniProt Q63707) (Q63707 whole entry): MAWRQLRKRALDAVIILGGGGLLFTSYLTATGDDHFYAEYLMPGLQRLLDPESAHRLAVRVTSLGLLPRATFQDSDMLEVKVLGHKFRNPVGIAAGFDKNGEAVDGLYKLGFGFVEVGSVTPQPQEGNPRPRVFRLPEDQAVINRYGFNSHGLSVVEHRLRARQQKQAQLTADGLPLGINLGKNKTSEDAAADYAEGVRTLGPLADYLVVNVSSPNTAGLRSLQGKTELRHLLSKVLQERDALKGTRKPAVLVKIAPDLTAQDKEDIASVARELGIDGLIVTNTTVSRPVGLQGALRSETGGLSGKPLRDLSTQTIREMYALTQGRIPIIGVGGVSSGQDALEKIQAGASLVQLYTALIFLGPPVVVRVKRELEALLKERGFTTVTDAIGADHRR
Chain of Dihydroorotate dehydrogenase (quinone), mitochondrial (Mus musculus, UniProt O35435) (O35435 whole entry): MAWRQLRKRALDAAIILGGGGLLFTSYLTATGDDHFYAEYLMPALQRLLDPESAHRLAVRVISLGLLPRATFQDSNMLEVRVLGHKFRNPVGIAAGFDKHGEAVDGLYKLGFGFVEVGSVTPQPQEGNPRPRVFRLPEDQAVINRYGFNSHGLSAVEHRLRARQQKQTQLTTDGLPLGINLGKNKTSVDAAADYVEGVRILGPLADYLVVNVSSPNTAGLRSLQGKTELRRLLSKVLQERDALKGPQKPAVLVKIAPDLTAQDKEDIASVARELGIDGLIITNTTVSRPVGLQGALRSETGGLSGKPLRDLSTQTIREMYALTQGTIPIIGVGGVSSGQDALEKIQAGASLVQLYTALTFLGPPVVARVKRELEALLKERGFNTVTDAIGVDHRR
T1 sequence (Q02127 whole entry): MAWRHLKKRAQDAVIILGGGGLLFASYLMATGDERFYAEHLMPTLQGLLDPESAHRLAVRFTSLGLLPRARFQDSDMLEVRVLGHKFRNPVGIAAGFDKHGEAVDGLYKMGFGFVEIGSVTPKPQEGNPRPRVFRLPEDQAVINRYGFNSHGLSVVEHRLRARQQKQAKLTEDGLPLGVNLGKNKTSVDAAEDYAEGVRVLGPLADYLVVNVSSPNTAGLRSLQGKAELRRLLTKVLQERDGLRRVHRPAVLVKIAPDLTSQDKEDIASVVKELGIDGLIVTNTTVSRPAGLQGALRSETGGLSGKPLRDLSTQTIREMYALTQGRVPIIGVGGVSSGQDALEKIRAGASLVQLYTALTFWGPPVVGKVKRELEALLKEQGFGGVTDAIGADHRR

With `CCOC(=O)c1[nH]c(C)c(Cc2ccc(C(F)(F)F)cc2)c1C`, the IC50 in data set [1], in data set [2] and in [3] was above 100 µM each time. In the data set with Plasmodium falciparum [4], this compound registered an EC50 of 61 to 71 nM.
`Cc1c(Cc2ccc(C(F)(F)F)nc2)c[nH]c1C(=O)N1CC(F)(F)C1`: the IC50 is 33 nM in [5], above 100 µM in data set [1], above 100 µM in data set [2] and above 100 µM in data set [3]. Also, the microsomal CLint stood at 21 µL/min/mg in data set [6] and 94 µL/min/mg in data set [7] (microsomes). Besides, the fraction unbound on Albumin [8] is 0.251. Also, the logD in the data set “physchem [9]” turned out to be 3.3. This compound also yielded an EC50 in the data set on Plasmodium falciparum [4] of 29 nM.
`Cc1nc2cc(OC(F)(F)F)ccc2n1-c1ccc(C(=O)NC2CC2)s1`: the values for the IC50 in [10] and in [11] were 22 nM and above 30 µM, respectively. This compound also returned an EC50 in the data set with Plasmodium falciparum [4] of 7 nM.
As to `Cc1cc(Nc2ccc(S(F)(F)(F)(F)F)cc2)n2nc(C(C)(F)F)nc2n1` [DSM-265], in data set [5], the IC50 was 30 nM. Besides, the microsomal CLint was below 7 µL/min/mg in [6]; 7 to 8 µL/min/mg in data set [7] (liver microsomes, read-out: CLH); below 7 µL/min/mg in data set [40]. Besides, the EC50 in data set [12] is above 20 µM; in the data set on Plasmodium falciparum [13] it was 120 to 150 nM; with Plasmodium falciparum [14], 80 to 110 nM; in the data set on Plasmodium falciparum [15], 170 nM; with Plasmodium falciparum [16], 74 to 150 nM; in data set [17] it was 1600 nM. Also, the EC50 turned out to be 7 µM in [18], 6 nM in the data set with Plasmodium falciparum [38], 6 nM with Plasmodium falciparum [4] and 23 nM in the data set with Plasmodium falciparum [39]. Besides, the CC50 with HepG2 and with L1210 was above 50 µM in each case. In addition, the fraction unbound in [19] is 0.03; at Albumin [20], 0.169; in data set [21], 0.283. Further, the PB in [22] came out at 78.5%; at Albumin [8] (isolated protein), 97.4%. Moreover, in data set [23], the half-life is 144 min. Besides, the Cmax in data set [24] worked out at 3.94 µM; in data set [28] it was 3.95 µM. For the same compound, in [25], the AUC(0-inf) amounted to 29.7 µM·h. In addition, the bioavailability in [26] came out at 61%. The same compound displayed a clearance in data set [27] of 6.5 mL/min/kg. Also, the ED90 in the data set with Plasmodium falciparum [29] is 3 mg/kg/day. In data set [30], the fAUC lay in the range of 0.015 to 0.023 µg·h/mL. In addition, the solubility was 27.6 µg/mL (≈ 66.5 µM) in data set [31], 6.8 µg/mL (≈ 16.4 µM) in the data set “physchem [35]”, 5.1 µg/mL (≈ 12.3 µM) in the data set “physchem [36]” and 2 µg/mL (≈ 4.82 µM) in “physchem [37]”. This compound also registered a fEC50 with Plasmodium falciparum [32] of 0.001 µM. Besides, the values for the Tmax in the data set “in vivo [33]” and in the data set “in vivo [34]” were 1 to 2 h and 3.3 h, respectively.
With `CCOC(=O)c1[nH]c(C)c(Cc2ccc(OC)cc2)c1C`, the IC50 in [5] was 520 nM; in [1], above 100 µM; in data set [2] it was above 100 µM; in data set [3], above 100 µM. The compound also displayed an EC50 in the data set on Plasmodium falciparum [4] of 590 nM.
As to `Cc1[nH]c(C(=O)NC2CC2)cc1Cc1ccc(C(F)(F)F)nc1`, the IC50 in [5] is 10000 nM; in data set [1], above 100 µM. Also, the microsomal CLint was determined as 36 µL/min/mg in data set [6] and 41 µL/min/mg in data set [7] (microsomes). Besides, the fraction unbound at Albumin [8] was 0.274. Also, in “physchem [9]”, the logD came out at 2.8. Moreover, the EC50 with Plasmodium falciparum [4] stood at 3600 nM.
Take `Cc1cc(Nc2ccc(C(F)(F)F)nc2)n2nc(C(C)(F)F)nc2n1`: the AUCED90 in the data set with Plasmodium falciparum [41] is 12.9 µg·h/mL. The compound further registered a fAUC in data set [30] of 0.25 µg·h/mL. The fEC50 in the data set on Plasmodium falciparum [32] was 0.007 µM. Besides, the response in the data set with Plasmodium falciparum [38] was half-maximal at 14 nM (EC50). The ED90 in the data set on Plasmodium falciparum [38] (3D70087/N9, in Mus musculus, po, 96 h) was 2.6 mg/kg/day.
In the case of `CCOC(=O)c1[nH]c(C)c(Cc2ccc(C(F)(F)F)nc2)c1C`, the figures for the microsomal CLint in [6] and in data set [7] (microsomes) were 286 µL/min/mg and 779 µL/min/mg, respectively. Moreover, the fraction unbound at Albumin [8] is 0.064. Further, the IC50 in [1], in [2] and in data set [3] was above 100 µM in each case. In “physchem [9]”, this compound came in with a logD of 3.7. The EC50 in the data set with Plasmodium falciparum [4] is 9.2 nM.

The values above are taken from ChEMBL document CHEMBL4602703, “Lead Optimization of a Pyrrole-Based Dihydroorotate Dehydrogenase Inhibitor Series for the Treatment of Malaria” (J Med Chem, 2020).
